In US10076525B2, “Sex steroid precursors alone or in combination with selective estrogen receptor modulators for the prevention and treatment of dyspareunia in postmenopausal women” (ENDORECHERCHE, INC., priority 2004, dated 2018):
Structures can show the parent of a compound that is named as a salt.

Experiments:
[1] = test system: rat vagina; experiment: Histological evaluation of epithelium, lamina propria and muscularis in the seven rat vaginal segments; assay type: in vivo; conditions: OVX rats, 36 wk
Description: The animals were housed individually and were allowed free access to water and rodent food (Lab Diet 5002, Ralston Purina, St-Louis, Mo.).
(§1) Animals from the intact and OVX control groups received the vehicle alone.
(§2) Twenty-four hours after the last dosing, overnight fasted animals were sacrificed under isoflurane anesthesia by exsanguination at the abdominal aorta (9 animals per group) or by intracardiac perfusion with 10% neutral buffered formalin (5 animals per group). Vaginae from non-perfused animals were collected and weighed, while the vaginae collected from perfused animals were marked with black ink on the ventral side, and then trimmed as described below.
(§3) The entire vagina of each perfused animal was post-fixed in 10% neutral buffered formalin.
The degree of compactness of collagen fibers in the vagina was categorized as low, moderate and high (FIGS. 6A-6C, respectively), as observed in the area proximal to the epithelium. <<Low>> and <<moderate compactness>> were associated with the presence of coarse collagen fibers loosely or less loosely aggregated together, respectively, while <<high compactness>> was the term used to describe tightly packed fine collagen fibers, displaying a smooth, textured appearance. In all the animals, there were relatively few fibrocytes in proportion to the amount of collagen, and they appeared predominantly flattened and shrunken.

[2] = test system: rat vagina; experiment: Histomorphometry: thickness of vaginal layers at the fifth segment; assay type: in vivo; conditions: OVX rats, 36 wk, fifth segment, mean±SEM
Description: as §1, §2, §3
Measurements of the different vaginal layers were performed on the fifth segment (FIG. 1), which is approximately halfway between the middle region and the portio vaginalis uteri (segment 7). […] Images were captured with a DC-330 3CCD color camera (Dage-MTI, Michigan City, Ind., USA) and quantified using Image-Pro Plus 3.0 software (Media Cybernetics, Silver Spring, Md., USA). Thus, using a ×5 objective (Leica Microsystems, Willowdale, Ont., Canada), 3 to 4 thickness measurements per layer were obtained from representative areas of the epithelium and muscularis, and for the three vaginal layers together. The total vaginal thickness, the thickness of the epithelium and the thickness of the muscularis were thus measured. The thickness of the lamina propria was obtained by subtracting the thickness of the epithelium and muscularis from total vaginal thickness.
(§4) Data are presented as means±SEM of 8-9 animals per group for vaginal weight or 5 animals per group for vaginal layer thickness determinations. Statistical significance was determined according to the multiple-range test of Duncan-Kramer (Kramer, 1956, Biometrics, 12: 307-310).

[3] = test system: rat vagina; experiment: Vaginal weight after 36 weeks of treatment; assay type: in vivo; conditions: OVX rats, 36 wk, versus OVX
Description: as §1, §2, §4

[4] = test system: AR; experiment: Immunohistochemistry of AR in fifth vaginal segment; assay type: in vivo, rat; conditions: OVX rats, 36 wk
Protocol: as §1
(§5) Immunostaining was performed using Zymed SP kits (San Francisco, Calif.). Paraffin sections (4 μm) were deparaffinized in toluene and rehydrated through ethanol. Endogenous peroxidase activity was eliminated by preincubation with 3% H2O2 in methanol for 30 min. A microwave retrieval technique using citrate buffer (Tacha and Chen, 1994) was applied. After cooling the slides, non-specific binding was blocked using 10% goat serum for 20 min. Sections were then incubated for 1.5 h at room temperature with ERα (AB-1, Calbiochem, California), AR (N-20, Santa Cruz Biotechnology, California) or PR (Ab-4, NeoMarkers, California) antibodies, at 1:200, 1:250 and 1:250 respectively. After washing in PBS buffer, sections were incubated with biotinylated anti-rabbit secondary antibody for 10 min and thereafter with streptavidin-peroxidase for another 10 min. Diaminobenzidine was used as the chromogen to visualize the biotin/streptavidin-peroxidase complex, under microscope monitoring. Counterstaining was performed using #2 Gill's hematoxylin for 30 sec. For controls, immunoabsorption with an excess of the peptide used to raise the antibody, or substitution with non immune rabbit IgG, was performed.

[5] = test system: PR; experiment: Immunohistochemistry of PR in fifth vaginal segment; assay type: in vivo, rat; conditions: OVX rats, 36 wk
Protocol: as §1, §5

[6] = test system: rat vagina; experiment: Comparison of SERMs: vaginal epithelium morphology in the OVX rat (Example 2); conditions: OVX rats, 0.5 mg/kg oral daily
Protocol: Ten to twelve week-old female Sprague-Dawley rats (Crl:CD(SD)Br) (Charles River Laboratory, St-Constant, Canada) weighing 215-265 g at time of ovariectomy were used. The animals were housed individually in an environmentally-controlled room (temperature: 22±3° C.; humidity: 50±20%; 12-h light-12-h dark cycles, lights on at 07:15 h). The animals were allowed free access to tap water and a certified rodent feed (Lab Diet 5002 (pellet), Ralston Purina, St-Louis, Mo.).
Different experiments were performed: two 20-day and two 8-month studies. In each of the two first experiments, the animals were randomly distributed between 3 groups of 13 or 14 animals as follows: 1) Intact control; 2) Ovariectomized (OVX) control; 3) OVX+raloxifene (0.5 mg/kg), or, 3) OVX+LY 363381 (0.5 mg/kg). […] In the other 8-month study, the animals were randomly distributed between 3 groups of 10-11 animals as follows: 1) Intact control; 2) Ovariectomized (OVX) control; 3) OVX+lasofoxifene (0.5 mg/kg). […] The tested compounds were then given once daily by oral gavage as a suspension in 0.4% methylcellulose (0.5 ml/rat) from day 1 to day 20 of the study or from day 1 to week 32 of the study.
Twenty-four hours after the last dosing, the animals were sacrificed under isoflurane anesthesia by exsanguination. The vaginae were collected and immersed in 10% neutral buffered formalin immediately after resection. […] The segments were then routinely processed and embedded in paraffin blocks. When appropriate, all the segments were positioned in the paraffin block in a sequence corresponding to their original anatomical position and oriented perpendicular to the surface of the block, thus allowing the segments to be cut in cross-sections. For each animal, a 4 μm-thick paraffin section was cut and stained with haematoxylin-eosin for morphological examination.

[7] = test system: estrogen receptor; experiment: Testing of antiestrogens for SERM function
[8] = Acolbifene 2.5, Premarin 0.5 mg/kg oral, DHEA 80 mg/kg dorsal skin, segment 1

CC1=C(c2ccc(O)cc2)[C@H](c2ccc(OCCN3CCCCC3)cc2)Oc2cc(O)ccc21.Cl [Acolbifene]
compactness of collagen fibers (lamina propria) [1, 8]: M-M | lamina propria thickness [1, 8]: M-M | epithelium morphology ([1]; Acolbifene 2.5, Premarin 0.5 mg/kg oral, DHEA 80 mg/kg dorsal skin, segment 2): SCM-A | epithelium morphology ([1]; Acolbifene 2.5, Premarin 0.5 mg/kg oral, DHEA 80 mg/kg dorsal skin, segment 3): SCM-A | epithelium morphology ([1]; Acolbifene 2.5, Premarin 0.5 mg/kg oral, DHEA 80 mg/kg dorsal skin, segment 4): SCM-A | epithelium morphology ([1]; Acolbifene 2.5, Premarin 0.5 mg/kg oral, DHEA 80 mg/kg dorsal skin, segment 5): SCM-A | epithelium morphology ([1]; Acolbifene 2.5, Premarin 0.5 mg/kg oral, DHEA 80 mg/kg dorsal skin, segment 6): SCM-A | epithelium morphology ([1]; Acolbifene 2.5, Premarin 0.5 mg/kg oral, DHEA 80 mg/kg dorsal skin, segment 7): SCM-A | epithelium thickness of segment 1 (external opening) ([1]; OVX controls 4-6 layers): 9-11 cell layers | animals showing signs of minimal inflammation ([1]; moderate to severe inflammation in all OVX animals): three out of five | total vaginal wall thickness ([2]; OVX 128±3, intact 262±39): 108±8 μm | lamina propria thickness ([2]; total minus epithelium and muscularis, OVX 76±2, intact 135±28): 60±8 μm | effect on vaginal weight [3]: no effect | AR: labeling intensity ([4]; epithelium): ++ | AR: semi-quantitative evaluation of labeled nuclei ([4]; epithelium): 2 | AR: labeling intensity ([4]; lamina propria): +++ | AR: semi-quantitative evaluation of labeled nuclei ([4]; lamina propria): 1 | AR: labeling intensity ([4]; muscularis): +++ | AR: semi-quantitative evaluation of labeled nuclei ([4]; muscularis): 1 | PR: semi-quantitative evaluation of labeled nuclei ([5]; epithelium): 0 | PR: semi-quantitative evaluation of labeled nuclei ([5]; lamina propria): 0 | PR: semi-quantitative evaluation of labeled nuclei ([5]; muscularis): 0 | mucous cell layer(s) overlying the basal cell layer, middle of the vagina ([6]; 8-month study): one

COc1ccc(-c2sc3cc(O)ccc3c2Oc2ccc(OCCN3CCCCC3)cc2)cc1 [Arzoxifene]
function as SERM [7]: found to function as SERMs

CC/C(=C(/c1ccc(OCCN(C)C)cc1)c1cccc(O)c1)c1ccccc1 [Droloxifene]
function as SERM [7]: found to function as SERMs

CC1=C(c2ccc(OC(=O)C(C)(C)C)cc2)[C@H](c2ccc(OCCN3CCCCC3)cc2)Oc2cc(OC(=O)C(C)(C)C)ccc21 [EM-800]
function as SERM [7]: found to function as SERMs

Cc1c(-c2ccc(O)cc2)n(Cc2ccc(OCCN3CCCCC3)cc2)c2ccc(O)cc12 [ERA-923]
mucous cell layer(s) overlying the basal cell layer, middle of the vagina ([6]; 8-month study): one

CC/C(=C(\c1ccccc1)c1ccc(/C=C/C(=O)O)cc1)c1ccccc1 [GW-5638]
function as SERM [7]: found to function as SERMs

C[C@]12CC[C@@H]3c4ccc(O)cc4C[C@@H](CCCCCCCCC[S+]([O-])CCCC(F)(F)C(F)(F)F)[C@H]3[C@@H]1CC[C@@H]2O (stereo partly shown) [ICI 182,780]
function as SERM [7]: found not to function as SERM

COc1ccc(-c2sc3cc(O)ccc3c2Oc2ccc(OCCN3CCCCC3)cc2)cc1 [LY 363381]
mucous cell layer(s) overlying the basal cell layer, middle of the vagina ([6]; 20-day study): many

O=C(c1ccc(OCCN2CCCCC2)cc1)c1c(-c2ccc(O)cc2)sc2cc(O)ccc12 [Raloxifene]
function as SERM [7]: found to function as SERMs | mucous cell layer(s) overlying the basal cell layer, middle of the vagina ([6]; 20-day study): many

Cc1c(-c2ccc(O)cc2)n(Cc2ccc(OCCN3CCCCCC3)cc2)c2ccc(O)cc12 [TSE-424]
function as SERM [7]: found to function as SERMs | mucous cell layer(s) overlying the basal cell layer, middle of the vagina ([6]; 8-month study): one

CC/C(=C(\c1ccccc1)c1ccc(OCCN(C)C)cc1)c1ccccc1 [Tamoxifen, (Z)-2-[4-(1,2-diphenyl-1-butenyl)]-N,N-dimethylethanamine]
function as SERM [7]: found to function as SERMs

Oc1ccc2c(c1)CC[C@H](c1ccccc1)[C@@H]2c1ccc(OCCN2CCCC2)cc1 [lasofoxifene, (−)-cis-(5R,6S)-6-phenyl-5-[4-(2-pyrrolidin-1-ylethoxy)phenyl]-5,6,7,8-tetrahydronaphthalen-2-ol, D-(−)-tartrate salt]
function as SERM [7]: found to function as SERMs | mucous cell layer(s) overlying the basal cell layer, middle of the vagina ([6]; 8-month study): many
